This is an account of results in patent US6652921B2, “Wood containing fixed sorbic acid or sorbic acid salts” (Nutrinova Nutrition Specialties & Food Ingredients GmbH, priority 2000, dated 2003).

For series [1] the following is noted: cited from earlier work; for Solubility in water: water (cold water for sorbic acid).
The conditions of series [2]: humans; internationally established; cited from earlier work.
The conditions of series [3]: mean body weight of 60 kg. As for the experimental part:
Sorbic acid and its salts are accordingly permitted for food use by international committees and permitted worldwide as a preservative for direct addition to foods. The internationally established tolerable daily dose for humans of up to 25 mg/kg of body weight corresponds to a tolerable consumption by adults of up to 1.5 g per day (at a mean body weight of 60 kg).

The next series has as its system fungi. Conditions: cited from earlier work.
Another series concerns wood-damaging fungi. The note with it: cited from earlier work.

As for `C/C=C/C=C/C(=O)[O-].[K+]` [Potassium sorbate], the Solubility in water result in series [1] is “dissolves very readily in water”.
As for `C/C=C/C=C/C(=O)O` [Sorbic acid, trans, trans-2,4-hexadienoic acid], the Tolerable daily dose result in series [2] is listed as “up to 25 mg/kg of body weight”. In addition, the “Solubility in liquid alcohols” value in series [1] (liquid alcohols) is reported as “good”. For the same compound, the Solubility in water entry in series [1] is recorded as “dissolves only sparingly in cold water”. In series [3], the “Tolerable consumption by adults” value is given as “up to 1.5 g per day”.
Regarding `C/C=C/C=C/C(=O)[O-].[Na+]` [sodium sorbate], the “Growth of fungi on treated bamboo” value with fungi (after a few days) was “growth of fungi and poorer results than the dehydroacetic acid”. Moreover, in the series on fungi (bamboo), the “Activity depending on pH” value is “only active in these studies at a pH of 3.0”.
`C/C=C/C=C/C(=O)[O-].C/C=C/C=C/C(=O)[O-].[Zn+2]` [zinc salt of sorbic acid]: the “Activity as wood preservative” value in the series on wood-damaging fungi was “inactive”.
